# Molecular target: T1, human EP1 receptor (Homo sapiens, UniProt P34995)
# T1 sequence (P34995 1-402): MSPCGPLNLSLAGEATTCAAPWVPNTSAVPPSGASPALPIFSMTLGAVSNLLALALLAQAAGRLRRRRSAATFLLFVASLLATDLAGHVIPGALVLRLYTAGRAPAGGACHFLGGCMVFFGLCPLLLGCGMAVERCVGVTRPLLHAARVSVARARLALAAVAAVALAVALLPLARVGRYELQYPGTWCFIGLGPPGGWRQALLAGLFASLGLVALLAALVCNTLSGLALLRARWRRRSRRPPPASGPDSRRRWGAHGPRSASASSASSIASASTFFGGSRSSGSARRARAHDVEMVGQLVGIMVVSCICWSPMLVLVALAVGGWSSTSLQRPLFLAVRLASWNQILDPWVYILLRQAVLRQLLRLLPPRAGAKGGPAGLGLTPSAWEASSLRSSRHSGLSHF
# Assay: Test 2: Measurement of IP1 responses by HTRF, suspended HEK-293 cells stably expressing human EP1 receptors, PGE2 30 nM
# Format: cell-based
# Design: expressed in transfected cells
# Settings: HEK293, at 10 μM, read-out: Results of Test 2 (Functional assay), % inh
# Description: Test 2: Measurement of IP1 responses by Homogeneous Time Resolved Fluorescence
# IP1 measurements on HEK-293 cells that stably expressed human EP1 receptors were performed by using a system based on Homogeneous Time Resolved Fluorescense (HTRF) (Gabriel et al., 2003). This technology allows the direct measurement of IP1 in living cells. The principle of this assay is based on competition between IP1 produced by cells and IP1-d2 conjugate for the binding with monoclonal anti-IP1-cryptate conjugate. The HTRF IP1 kit from CisBio was used according to the manufacturer's directions. The experimental procedure was performed as stated below.
# Suspended cells (30,000 cells per well) were added to 96-well culture plates in 40 μl of stimulation buffer (supplied by the kit). Compounds were then added in 20 μl of stimulation buffer and incubated at 37° C. for 15 minutes followed by 10 μl of PGE2 to a final concentration of […]. After 90 minutes at 37° C., the reaction was stopped lysing the cells with a mixture of 15 μl of cryptate and 15 μl of IP1-d2 prepared in the lysis buffer supplied by the manufacturer. Plates were incubated for an additional hour at room temperature and read at 665 nm/620 nm using an UltraEvolution Plate reader (Tecan).
# Antagonist percentage inhibition was calculated relating compounds activity to the 0% inhibition of the wells incubated with 10 nM PGE2 alone and 100% inhibition of the wells incubated with 10 nM PGE2 plus 1 μM of the reference antagonist.
row,Compound,inhibition at 10 µM
1,"O=C(O)c1cccc2c1ccn2Cc1cc(Cl)cc(Br)c1OCc1c(F)cccc1F [Example 40, 1-(3-bromo-5-chloro-2-((2,6-difluorobenzyl)oxy)benzyl)-1H-indole-4-carboxylic acid]",45 to 75%
2,O=C(O)c1ccc2c(ccn2Cc2cc(Cl)ccc2OCc2ccc(F)cc2F)c1 [Example 78],> 75%
3,"O=C(O)c1ccc2c(ccn2Cc2cc(Cl)ccc2OCC2CC2)c1 [Example 64, 1-(5-chloro-2-(cyclopropylmethoxy)benzyl)-1H-indole-5-carboxylic acid]",> 75%
4,"O=C(O)c1cccc2c1ccn2Cc1cc(Br)ccc1OCc1ccc(Cl)cc1F [Example 9, 1-(5-bromo-2-((4-chloro-2-fluorobenzyl)oxy)benzyl)-1H-indole-4-carboxylic acid]",> 75%
5,"O=C(O)c1cccc2c1ccn2Cc1cc(Br)ccc1OCc1c(F)cc(Cl)cc1F [Example 60, 1-(5-bromo-2-((4-chloro-2,6-difluorobenzyl)oxy)benzyl)-1H-indole-4-carboxylic acid]",> 75%
6,"O=C(O)c1cccc2c1ccn2Cc1cc(Br)ccc1OCC1CC1 [Example 8, 1-(5-bromo-2-(cyclopropylmethoxy)benzyl)-1H-indole-4-carboxylic acid]",> 75%
7,"O=C(O)/C=C/c1cccc2c1ccn2Cc1cc(Cl)ccc1OCc1ccc(Cl)cc1F [Example 83, (E)-3-(1-(5-chloro-2-((4-chloro-2-fluorobenzyl)oxy)benzyl)-1H-indol-4-yl)acrylic acid]",> 75%
8,"O=C(O)c1ccc2c(ccn2Cc2cc(Br)ccc2OCc2ccc(F)cc2Cl)c1 [Example 70, 1-(5-bromo-2-((2-chloro-4-fluorobenzyl)oxy)benzyl)-1H-indole-5-carboxylic acid]",> 75%
9,"O=C(O)c1cccc2c1ccn2Cc1cc(Cl)ccc1OCc1cc(F)cc(F)c1 [Example 41, 1-(5-chloro-2-((3,5-difluorobenzyl)oxy)benzyl)-1H-indole-4-carboxylic acid]",> 75%
10,"O=C(O)c1cccc2c1ncn2Cc1cc(Cl)ccc1OCc1ccc(Cl)cc1F [Example 92, 1-(5-chloro-2-((4-chloro-2-fluorobenzyl)oxy)benzyl) -1H-benzo[d]imidazole-4-carboxylic acid]",45 to 75%

# Molecular target: T1, human EP1 receptor
# Assay: Test 1: Human EP1 receptor radioligand binding assay ([3H]-PGE2, transfected HEK-293 cell membranes)
# Design: expressed in transfected cells; host or cells: HEK-293 cell membranes
# Settings: at 10 μM
# Description: Test 1: Human EP1 Receptor Radioligand Binding Assay
# To investigate binding properties of EP1 receptor ligands to human EP1 receptor, transfected HEK-293 cell membranes and [3H]-PGE2 (Perkin Elmer) were used. In 96-well plates the assay was carried out with a total reaction volume of 250 μl, containing 25 μl of membrane suspension (30 μg protein/well), 25 μl of [3H]-PGE2 (10 nM) in either absence or presence of 25 μl of either buffer or PGE2 (10 μM) for total and non-specific binding, respectively. Binding buffer contained 10 mM MES, 1 mM MgCl2 and 1 mM EDTA at pH 6.0. Plates were incubated at 25° C. for 60 minutes. After the incubation period, 200 μl of incubate were transferred to MultiScreen HTS, FB plates (Millipore), filtered and plates were washed 6 times with ice-cold 10 mM MES, 1 mM MgCl2 and 1 mM EDTA at pH 6.0. Filters were dried and counted in a MicroBeta scintillation counter (Perkin-Elmer) using EcoScint liquid scintillation cocktail.
# Percentage inhibition was calculated relating compounds activity to the 0% inhibition of the wells incubated with 10 nM [3H]-PGE2 alone (total binding) and 100% inhibition of the wells incubated with 10 nM [3H]-PGE2 plus 10 μM PGE2 (non-specific binding).
row,Compound,"Results of Test 1 (Binding assay), % inh"
1,1-(5-chloro-2-((2-chloro-5-fluorobenzyl)oxy)benzyl)-1H-indole-4-carboxylic acid [Example 30],## (45 < % inh < 75)
2,CC(C)(F)COc1ccc(Cl)cc1Cn1ncc2c(C(=O)[O-])ccnc21.[Na+] [Example 213],# (% inh > 75)

# Same assay, conditions: read-out: Results of Test 1 (Binding assay), % inh
row,inhibition at 10 µM,Compound
1,> 75%,O=C(O)c1cccc2c1ccn2Cc1cc(Cl)ccc1OCC(F)(F)F [Example 112]
2,45 to 75%,CCCOc1ccc(F)cc1Cn1ncc2c(C(=O)O)cccc21 [Example 135]
3,45 to 75%,CC(C)(C)COc1ccc(Cl)cc1CN1CCc2c(C(=O)O)cccc21 [Example 203]
4,45 to 75%,O=C(O)c1ccc(F)c2c1ccn2Cc1ccccc1OCc1ccc(F)cc1F [Example 140]
5,> 75%,CC(C)(F)COc1ccc(Cl)cc1Cn1cc(CCO)c2c(C(=O)O)cccc21 [Example 158]
6,45 to 75%,CC(C)C(C)Oc1ccc(Cl)cc1CN1CCCc2c(C(=O)O)cccc21 (stereo not shown) [Example 176]
7,45 to 75%,O=C(O)c1cccc2c1ccn2Cc1cc(Cl)ccc1OCCF [Example 111]
8,> 75%,O=C(O)c1cccc2c1cnn2Cc1cc(Cl)ccc1OC1CCCC1 [Example 133]
9,45 to 75%,COCCOc1ccc(Cl)cc1CN1CCc2c(C(=O)O)cccc21 [Example 201]
10,45 to 75%,CC(C)COc1ccc(F)cc1Cn1ccc2c(C(=O)O)cccc21 [Example 108]
11,> 75%,O=C(O)c1cccc2c1c(CCO)cn2Cc1cc(F)ccc1OCc1ccc(F)cc1F [Example 159]
12,45 to 75%,CCCOc1ccc(Cl)cc1Cn1ccc2c(C(=O)O)cccc21 [Example 106]
13,> 75%,O=C(O)c1cccc2c1ccn2Cc1cc(Cl)ccc1OC1CCCC1 [Example 105]
14,45 to 75%,CCCOc1ccc(F)cc1Cn1ccc2c(C(=O)O)cccc21 [Example 104]
15,45 to 75%,"COc1ccc(OCc2ccc(F)cc2F)c(Cn2ccc3c(C(=O)O)cccc32)c1 [Example 101, sodium 1-{2-[(2,4-difluorobenzyl)oxy]-5-methoxybenzyl}-1H-indole-4-carboxylate]"

# The remaining lines, values behind:
row,Compound,inhibition at 10 µM
1,"O=C(O)c1cccc2c1ccn2Cc1cc(Cl)ccc1OCc1c(F)cc(Cl)cc1F [Example 57, 1-(5-chloro-2-((4-chloro-2,6-difluorobenzyl)oxy)benzyl)-1H-indole-4-carboxylic acid]",> 75%
2,"O=C(O)c1cccc2c1ccn2Cc1cc(F)ccc1OCc1cc(F)ccc1F [Example 32, 1-(2-((2,5-difluorobenzyl)oxy)-5-fluorobenzyl)-1H-indole-4-carboxylic acid]",45 to 75%
3,"O=C(O)c1cccc2c1ccn2Cc1cc(Cl)ccc1OCc1cc(F)c(F)cc1Cl [Example 31, 1-(5-chloro-2-((2-chloro-4,5-difluorobenzyl)oxy)benzyl)-1H-indole-4-carboxylic acid]",45 to 75%
4,"O=C(O)c1cccc2c1ccn2Cc1cc(F)ccc1OCc1ccc(Br)cc1F [Example 56, 1-(2-((4-bromo-2-fluorobenzyl)oxy)-5-fluorobenzyl)-1H-indole-4-carboxylic acid]",> 75%
5,"O=C(O)c1cccc2c1ccn2Cc1cc(Cl)ccc1OCc1cc(F)c(F)cc1F [Example 15, 1-(5-chloro-2-((2,4,5-trifluorobenzyl)oxy)benzyl)-1H-indole-4-carboxylic acid]",> 75%
6,"O=C(O)c1cccc2c1ccn2Cc1cc(C(F)(F)F)ccc1OCc1ccc(Br)cc1F [Example 50, 1-(2-((4-bromo-2-fluorobenzyl)oxy)-5-(trifluoromethyl)benzyl)-1H-indole-4-carboxylic acid]",> 75%
7,"O=C(O)c1cccc2c1ccn2Cc1cc(Br)ccc1OCc1ccc(F)cc1Cl [Example 27, 1-(5-bromo-2-((2-chloro-4-fluorobenzyl)oxy)benzyl)-1H-indole-4-carboxylic acid]",> 75%
8,"O=C(O)c1cccc2c1ccn2Cc1cc(F)ccc1OCc1cc(F)c(F)cc1F [Example 16, 1-(5-fluoro-2-((2,4,5-trifluorobenzyl)oxy)benzyl)-1H-indole-4-carboxylic acid]",> 75%
9,"O=C(O)c1cccc2c1ccn2Cc1cc(Br)ccc1OCc1ccc(F)c(F)c1F [Example 22, 1-(5-bromo-2-((2,3,4-trifluorobenzyl)oxy)benzyl)-1H-indole-4-carboxylic acid]",45 to 75%
10,O=C(O)c1ccnc2c1ccn2Cc1cc(Cl)ccc1OCc1ccc(F)cc1F [Example 91],> 75%
11,"O=C(O)c1cccc2c1ccn2Cc1cc(Br)ccc1OCc1ccc(F)cc1C(F)(F)F [Example 26, 1-(5-bromo-2-((4-fluoro-2-(trifluoromethyl)benzyl)oxy)benzyl)-1H-indole-4-carboxylic acid]",> 75%
12,"O=C(O)c1cccc2c1ccn2Cc1cc(Cl)ccc1OCc1ccccc1 [Example 44, 1-(2-(benzyloxy)-5-chlorobenzyl)-1H-indole-4-carboxylic acid]",> 75%
13,O=C(O)c1ncnc2c1ccn2Cc1cc(Cl)ccc1OCc1ccc(Cl)cc1F [Example 98],> 75%

# Reference: patent US9518015B2, “EP1 receptor ligands” (LABORATORIOS DEL DR. ESTEVE, S.A., priority 2011, dated 2016)
